# Data from patent publication US10029992B2, “Diaminotriazine compounds and their use as herbicides” (BASF SE, priority 2014, dated 2018).
# Experiments:
# Experiment in all cases: Greenhouse experiment, pre-emergence treatment
# Conditions in all cases: pre-emergence method
# [1] = system: APESV; assay type: in vivo, Apera spica-venti
# From the text: (§1) The culture containers used were plastic flowerpots containing loamy sand with approximately 3.0% of humus as the substrate. The seeds of the test plants were sown separately for each species.
# (§2) For the pre-emergence treatment, the active ingredients, which had been suspended or emulsified in water, were applied directly after sowing by means of finely distributing nozzles. The containers were irrigated gently to promote germination and growth and subsequently covered with transparent plastic hoods until the plants had rooted. This cover caused uniform germination of the test plants, unless this had been impaired by the active ingredients.
# (§3) Depending on the species, the plants were kept at 10-25° C. or 20-35° C., respectively.
# (§4) The test period extended over 2 to 4 weeks. During this time, the plants were tended, and their response to the individual treatments was evaluated.
# (§5) Evaluation was carried out using a scale from 0 to 100. 100 means no emergence of the plants, or complete destruction of at least the aerial moieties, and 0 means no damage, or normal course of growth. A moderate herbicidal activity is given at values of at least 60, a good herbicidal activity is given at values of at least 70, and a very good herbicidal activity is given at values of at least 85.
# (§6) The plants used in the greenhouse experiments were of the following species: […]
# [2] = system: ECHCG; assay type: in vivo, Echinochloa crus-galli
# From the text: as §1, §2, §3, §4, §5, §6
# [3] = system: SETFA; assay type: in vivo, Setaria faberi
# From the text: (§7) The seeds of the test plants were sown separately for each species. For the pre-emergence treatment, the active ingredients, which had been suspended or emulsified in water, were applied directly after sowing by means of finely distributing nozzles. The containers were irrigated gently to promote germination and growth and subsequently covered with transparent plastic hoods until the plants had rooted. This cover caused uniform germination of the test plants, unless this had been impaired by the active ingredients. Depending on the species, the plants were kept at 10-25° C. or 20-35° C., respectively. The test period extended over 2 to 4 weeks. During this time, the plants were tended, and their response to the individual treatments was evaluated. Evaluation was carried out using a scale from 0 to 100. 100 means no emergence of the plants, or complete destruction of at least the aerial moieties, and 0 means no damage, or normal course of growth. A moderate herbicidal activity is given at values of at least 60, a good herbicidal activity is given at values of at least 70, and a very good herbicidal activity is given at values of at least 85. […] [table]
# [4] = system: AMARE; assay type: in vivo, Amaranthus retroflexus
# From the text: as §7
smiles,measurement,setting,value
COC(=O)c1cccc(Oc2cccc(F)c2Nc2nc(N)nc(C(C)(C)F)n2)c1 [Example 91],herbicidal activity against APESV,[1]; application rate 500 g/ha,very good (a very good herbicidal activity is given at values of at least 85)
CC(C)(F)c1nc(N)nc(Nc2c(F)cccc2Oc2cccc(OC(F)F)c2)n1 [Example 95],herbicidal activity against APESV,[1]; application rate 500 g/ha,very good (a very good herbicidal activity is given at values of at least 85)
same,herbicidal activity against ECHCG,[2]; application rate 500 g/ha,very good (a very good herbicidal activity is given at values of at least 85)
same,herbicidal activity against SETFA,[3]; application rate 500 g/ha,very good (a very good herbicidal activity is given at values of at least 85)
CN(C)c1cc(Oc2cccc(F)c2Nc2nc(N)nc(C(C)(C)F)n2)cc(C(F)(F)F)c1 [Example 80],herbicidal activity against ECHCG,[2]; application rate 125 g/ha,very good (a very good herbicidal activity is given at values of at least 85)
same,herbicidal activity against SETFA,[3]; application rate 125 g/ha,very good (a very good herbicidal activity is given at values of at least 85)
Cc1cc(C)cc(Oc2cccc(Cl)c2Nc2nc(N)nc(C(C)(C)F)n2)c1 [Example 37],herbicidal activity against APESV,[1]; application rate 0.25 kg/ha,very
same,herbicidal activity against ECHCG,[2]; application rate 0.25 kg/ha,good (a good herbicidal activity is given at values of at least 70)
CC(C)(F)c1nc(N)nc(Nc2c(F)cccc2Oc2cc(OC(F)(F)F)cc(-c3ccccc3)c2)n1 [Example 98],herbicidal activity against ECHCG,[2]; application rate 500 g/ha,very good (a very good herbicidal activity is given at values of at least 85)
same,herbicidal activity against SETFA,[3]; application rate 500 g/ha,very good (a very good herbicidal activity is given at values of at least 85)
same,herbicidal activity against AMARE,[4]; application rate 500 g/ha,very good (a very good herbicidal activity is given at values of at least 85)
Cc1cc(Oc2cccc(F)c2Nc2nc(N)nc(C(C)(C)F)n2)cc(OC2CCCCC2)c1 [Example 86],herbicidal activity against SEFTA,[3]; application rate 500 g/ha,good (a good herbicidal activity is given at values of at least 70)
Cc1cc(C)cc(Oc2cccc(F)c2Nc2nc(N)nc(CC(C)C)n2)c1 [Example 17],herbicidal activity against APESV,[1]; application rate 1000 g/ha,good (a good herbicidal activity is given at values of at least 70)
same,herbicidal activity against SEFTA,[3]; application rate 1000 g/ha,very good (a very good herbicidal activity is given at values of at least 85)
COc1cc(OC)cc(Oc2cccc(F)c2Nc2nc(N)nc(C(C)(C)F)n2)c1 [Example 27],herbicidal activity against APESV,[1]; application rate 0.25 kg/ha,very good (a very good herbicidal activity is given at values of at least 85)
same,herbicidal activity against ECHCG,[2]; application rate 0.25 kg/ha,very good (a very good herbicidal activity is given at values of at least 85)
same,herbicidal activity against SETFA,[3]; application rate 0.25 kg/ha,very good (a very good herbicidal activity is given at values of at least 85)
CCC(C)(F)c1nc(N)nc(Nc2c(F)cccc2Oc2cc(C)cc(C)c2)n1 (centres unmarked) [Example 32],herbicidal activity against APESV,[1]; application rate 0.25 kg/ha,very good (a very good herbicidal activity is given at values of at least 85)
same,herbicidal activity against ECHCG,[2]; application rate 0.25 kg/ha,very good (a very good herbicidal activity is given at values of at least 85)
same,herbicidal activity against SETFA,[3]; application rate 0.25 kg/ha,very good (a very good herbicidal activity is given at values of at least 85)
CCc1cccc(Oc2cccc(F)c2Nc2nc(N)nc(C(C)(C)F)n2)c1 [Example 90],herbicidal activity against APESV,[1]; application rate 500 g/ha,very good (a very good herbicidal activity is given at values of at least 85)
same,herbicidal activity against ECHCG,[2]; application rate 500 g/ha,very good (a very good herbicidal activity is given at values of at least 85)
same,herbicidal activity against AMARE,[4]; application rate 500 g/ha,very good (a very good herbicidal activity is given at values of at least 85)
Cc1cc(Oc2cccc(F)c2Nc2nc(N)nc(C(C)(C)F)n2)cc(OC2CCCC2)c1 [Example 85],herbicidal activity against AMARA,[4]; application rate 250 g/ha,very good (a very good herbicidal activity is given at values of at least 85)
CN(c1ccccc1)c1cccc(F)c1Nc1nc(N)nc(C(C)(C)F)n1 [Example 102],herbicidal activity against ECHCG,[2]; application rate 1000 g/ha,very good (a very good herbicidal activity is given at values of at least 85)
same,herbicidal activity against SEFTA,[3]; application rate 1000 g/ha,very good (a very good herbicidal activity is given at values of at least 85)
same,herbicidal activity against AMARE,[4]; application rate 1000 g/ha,very good (a very good herbicidal activity is given at values of at least 85)
CC(C)(F)c1nc(N)nc(Nc2c(F)cccc2Oc2cccc(Br)c2)n1 [Example 93],herbicidal activity against APESV,[1]; application rate 500 g/ha,very good (a very good herbicidal activity is given at values of at least 85)
same,herbicidal activity against ECHCG,[2]; application rate 500 g/ha,very good (a very good herbicidal activity is given at values of at least 85)
same,herbicidal activity against SETFA,[3]; application rate 500 g/ha,very good (a very good herbicidal activity is given at values of at least 85)
CC(C)(F)c1nc(N)nc(Nc2c(F)cccc2Oc2cc(-c3ccccc3)cc(C(F)(F)F)c2)n1 [Example 87],herbicidal activity against ECHCG,[2]; application rate 500 g/ha,very good (a very good herbicidal activity is given at values of at least 85)
same,herbicidal activity against SETFA,[3]; application rate 500 g/ha,very good (a very good herbicidal activity is given at values of at least 85)
same,herbicidal activity against AMARA,[4]; application rate 500 g/ha,very good (a very good herbicidal activity is given at values of at least 85)
COc1cc(I)cc(Oc2cccc(F)c2Nc2nc(N)nc(C(C)(C)F)n2)c1 [Example 84],herbicidal activity against ECHCG,[2]; application rate 250 g/ha,very good (a very good herbicidal activity is given at values of at least 85)
same,herbicidal activity against SETFA,[3]; application rate 250 g/ha,very good (a very good herbicidal activity is given at values of at least 85)
same,herbicidal activity against AMARA,[4]; application rate 250 g/ha,very good (a very good herbicidal activity is given at values of at least 85)
CC(C)(F)c1nc(N)nc(Nc2c(F)cccc2Oc2cccc(Cl)c2)n1 [Example 94],herbicidal activity against APESV,[1]; application rate 500 g/ha,very good (a very good herbicidal activity is given at values of at least 85)
same,herbicidal activity against ECHCG,[2]; application rate 500 g/ha,very good (a very good herbicidal activity is given at values of at least 85)
same,herbicidal activity against SETFA,[3]; application rate 500 g/ha,very good (a very good herbicidal activity is given at values of at least 85)
CC(C)(C)c1cccc(Oc2cccc(F)c2Nc2nc(N)nc(C(C)(C)F)n2)c1 [Example 92],herbicidal activity against APESV,[1]; application rate 500 g/ha,very good (a very good herbicidal activity is given at values of at least 85)
same,herbicidal activity against ECHCG,[2]; application rate 500 g/ha,very good (a very good herbicidal activity is given at values of at least 85)
same,herbicidal activity against SETFA,[3]; application rate 500 g/ha,very good (a very good herbicidal activity is given at values of at least 85)
CC(C)(F)c1nc(N)nc(Nc2c(F)cccc2Oc2cccc(C(F)(F)F)c2)n1 [Example 88],herbicidal activity against ECHCG,[2]; application rate 500 g/ha,very good (a very good herbicidal activity is given at values of at least 85)
same,herbicidal activity against SETFA,[3]; application rate 500 g/ha,very good (a very good herbicidal activity is given at values of at least 85)
same,herbicidal activity against AMARA,[4]; application rate 500 g/ha,very good (a very good herbicidal activity is given at values of at least 85)
Cc1cc(C)cc(Oc2cccc(F)c2Nc2nc(N)nc(C(C)C)n2)c1 [Example 19],herbicidal activity against APESV,[1]; application rate 0.25 kg/ha,very good (a very good herbicidal activity is given at values of at least 85)
same,herbicidal activity against APESV,[1]; application rate 250 g/ha,very good (a very good herbicidal activity is given at values of at least 85)
same,herbicidal activity against ECHCG,[2]; application rate 0.25 kg/ha,very good (a very good herbicidal activity is given at values of at least 85)
same,herbicidal activity against ECHCG,[2]; application rate 250 g/ha,very good (a very good herbicidal activity is given at values of at least 85)
same,herbicidal activity against SETFA,[3]; application rate 0.25 kg/ha,very good (a very good herbicidal activity is given at values of at least 85)
same,herbicidal activity against SEFTA,[3]; application rate 250 g/ha,very good (a very good herbicidal activity is given at values of at least 85)
Cc1cccc(N(C)c2cccc(F)c2Nc2nc(N)nc(C(C)(C)F)n2)c1 [Example 103],herbicidal activity against ECHCG,[2]; application rate 500 g/ha,very good (a very good herbicidal activity is given at values of at least 85)
same,herbicidal activity against SEFTA,[3]; application rate 500 g/ha,very good (a very good herbicidal activity is given at values of at least 85)
same,herbicidal activity against AMARE,[4]; application rate 500 g/ha,very good (a very good herbicidal activity is given at values of at least 85)
CC(C)(F)c1nc(N)nc(Nc2c(F)c(F)cc(-c3ccccc3)c2F)n1 [Example 44],herbicidal activity against SETFA,[3]; application rate 0.5 kg/ha,good (a good herbicidal activity is given at values of at least 70)
same,herbicidal activity against AMARE,[4]; application rate 0.5 kg/ha,good to very good
